Data taken from ChEMBL document CHEMBL4354831, “Novel Cell-Penetrating Peptide Conjugated Proteasome Inhibitors: Anticancer and Antifungal Investigations” (J Med Chem, 2020).
Values after ≈ are worked out from the molar mass of the structure shown. Active and inactive are the calls of the source. The rule behind the calls is not given here. Peptide text beside a SMILES is read from it.

Tests used:
[1] = test system: BE(2)-C; test: Induction of apoptosis in human BE(2)-C cells assessed as necrotic cells at 2xIC50 after 24 hrs by Alexa flour 488 annexin V/PI- staining based flow cytometric analysis relative to control; assay type: functional
[2] = test system: BE(2)-C; test: Induction of necrosis in human BE(2)-C cells at 2xIC50 after 24 hrs by Annexin-V alexa fluor 488/PI staining based fluorescence microscopic analysis; assay type: functional, cell-based
[3] = test system: BE(2)-C; test: Induction of membrane disruption in human BE(2)-C cells assessed as increase in cell debris with damaged membrane at 2xIC50 after 12 hrs by SEM analysis; assay type: cell-based
[4] = test system: BE(2)-C; test: Induction of pore formation in human BE(2)-C cell membrane at 2xIC50 after 12 hrs by SEM analysis; assay type: functional, cell-based
[5] = test system: BE(2)-C; test: Induction of membrane disruption in human BE(2)-C cells assessed as membrane blebbing at 2xIC50 after 24 hrs by SYTO9/PI-staining based inverted fluorescence microscopic analysis; conditions: Cell membrane
[6] = test system: HeLa; test: Induction of membrane disruption in human HeLa cells assessed as membrane lysis at 2xIC50 after 24 hrs by SYTO9/PI-staining based inverted fluorescence microscopic analysis; conditions: Cell membrane
[7] = test system: BE(2)-C; test: Induction of ROS generation in human BE(2)-C cells at 2xIC50 by DCFH-DA staining based fluorescence analysis; assay type: functional, cell-based; conditions: TDE = time-dependent effect
[8] = test system: HeLa; test: Ratio of IC50 for antiproliferative activity against human HeLa cells to IC50 for antiproliferative activity against human HeLa in presence of cisplatin; assay type: functional
[9] = test system: BE(2)-C; test: Induction of apoptosis in human BE(2)-C cells assessed as DNA damage at 2xIC50 after 24 hrs by SYTO9/PI-staining based inverted fluorescence microscopic analysis; assay type: functional, cell-based
[10] = test system: Candida albicans; test: Potentiation of amphotericin B-induced antifungal activity against Candida albicans SC5314 assessed as amphotericin MIC after 24 to 48 hrs by checker board assay; assay type: functional
[11] = test system: HeLa; test: Induction of necrosis in human HeLa cells at 2xIC50 after 24 hrs by Annexin-V alexa fluor 488/PI staining based fluorescence microscopic analysis; assay type: functional, cell-based
[12] = target: T1, 20S proteasome (Homo sapiens) (UniProt P49721+P20618+P28074+P28062+P28065+P28072+P25786+P25787+P25788+P25789+P28066+P60900+O14818+Q8TAA3+P40306+A5LHX3+P49720+P28070+Q99436); test: Inhibition of 20S proteasome in human BE(2)-C cells at 2xIC50 using LLVY-R110 peptide as substrate measured up to 36 hrs by fluorescence based assay; assay type: cell-based
[13] = test system: BE(2)-C; test: Induction of membrane disruption in human BE(2)-C cells assessed as membrane lysis at 2xIC50 after 24 hrs by SYTO9/PI-staining based inverted fluorescence microscopic analysis; conditions: Cell membrane
[14] = test system: Candida albicans; test: Induction of hyphal disruption in Candida albicans SC5314 assessed as hyphal debris at 2xMBEC by SEM analysis; assay type: organism-based; conditions: Hyphae
[15] = target: 20S proteasome; test: Inhibition of human 20S proteasome using Suc-LLVY-AMC as substrate measured every 5 mins for 120 mins by fluorescence based assay; assay type: protein-complex assay
[16] = test system: BE(2)-C; test: Antiproliferative activity against human BE(2)-C cells assessed as reduction in cell viability after 48 hrs by MTT assay; assay type: functional, cell-based
[17] = test system: HeLa; test: Induction of ROS generation in human HeLa cells at 2xIC50 measured up to 24 hrs in presence of ROS quencher, ascorbic acid by DCFH-DA staining based fluorescence analysis; assay type: functional, cell-based
[18] = Hemolytic activity in mouse RBC at 500 uM after 1 hr relative to control; assay type: ADME, cell-based, Erythrocyte; conditions: red blood cells (erythrocytes), read-out: Activity
[19] = test system: BE(2)-C; test: Induction of ROS generation in human BE(2)-C cells after 24 hrs by DCFH-DA staining based fluorescence analysis; assay type: functional, cell-based
[20] = test system: Candida albicans; test: Antifungal activity against Candida albicans SC5314 after 48 hrs; assay type: functional; conditions: SC5314, 48 h
[21] = test system: Candida albicans SC5314; test: Inhibition of Candida albicans SC5314 proteasome at antifungal MIC after 12 hrs by fluorescence based analysis
[22] = test system: BE(2)-C; test: Antiproliferative activity against human BE(2)-C cells assessed as reduction in cell viability in presence of cisplatin after 48 hrs by MTT assay; assay type: functional, cell-based
[23] = test system: HeLa; test: Induction of ROS generation in human HeLa cells after 24 hrs by DCFH-DA staining based fluorescence analysis; assay type: functional, cell-based
[24] = test system: Candida albicans; test: Induction of pore formation in Candida albicans SC5314 membrane at 2xMBEC by SEM analysis; assay type: organism-based; conditions: Cell membrane
[25] = test system: HeLa; test: Induction of ROS generation in human HeLa cells at 0.4 to 200 uM after 24 hrs in presence of ROS quencher, ascorbic acid by DCFH-DA staining based fluorescence analysis; assay type: functional, cell-based
[26] = target: T1, 20S proteasome (Homo sapiens); test: Potency index, ratio of ixazomib IC50 to compound IC50 for inhibition of human 20S proteasome using Suc-LLVY-AMC as substrate measured every 5 mins for 120 mins by fluorescence based assay; assay type: protein-complex assay
[27] = test system: Candida albicans; test: Ratio of MIC for antifungal activity against Candida albicans SC5314 to MIC for antifungal activity against Candida albicans SC5314 in presence of amphotericin B after 24 to 48 hrs by checker board assay; assay type: functional
[28] = test system: HeLa; test: Induction of apoptosis in human HeLa cells assessed as condensed chromatin at 2xIC50 after 24 hrs by Hoechst-33342 staining based inverted fluorescence microscopic analysis; assay type: functional, cell-based
[29] = test system: Candida albicans; test: Antifungal activity against Candida albicans SC5314 in presence of amphotericin B after 24 to 48 hrs by checker board assay; assay type: functional
[30] = test system: HeLa; test: Synergistic antiproliferative activity against human HeLa cells assessed as FICI in presence of cisplatin after 48 hrs by MTT assay; assay type: functional
[31] = target: T1, 20S proteasome (Homo sapiens); test: Inhibition of 20S proteasome in human HeLa cells at 2xIC50 using LLVY-R110 peptide as substrate measured up to 36 hrs by fluorescence based assay; assay type: cell-based
[32] = test system: HeLa; test: Induction of apoptosis in human HeLa cells assessed as apoptotic cells at 2xIC50 after 24 hrs by Alexa flour 488 annexin V/PI- staining based flow cytometric analysis relative to control; assay type: functional
[33] = test system: HeLa; test: Induction of ROS generation in human HeLa cells at 2xIC50 by DCFH-DA staining based fluorescence analysis; assay type: functional, cell-based; conditions: TDE = time-dependent effect
[34] = test system: BE(2)-C; test: Induction of membrane blebbing in human BE(2)-C cells at 2xIC50 after 12 hrs by SEM analysis; assay type: cell-based; conditions: Cell membrane
[35] = test system: BE(2)-C; test: Synergistic antiproliferative activity against human BE(2)-C cells assessed as FICI in presence of cisplatin after 48 hrs by MTT assay; assay type: functional
[36] = test system: BE(2)-C; test: Induction of ROS generation in human BE(2)-C cells at 0.4 to 200 uM after 24 hrs in presence of ROS quencher, ascorbic acid by DCFH-DA staining based fluorescence analysis; assay type: functional, cell-based
[37] = test system: BE(2)-C; test: Induction of apoptosis in human BE(2)-C cells assessed as condensed chromatin at 2xIC50 after 24 hrs by Hoechst-33342 staining based inverted fluorescence microscopic analysis; assay type: functional, cell-based
[38] = test system: HeLa; test: Induction of pore formation in human HeLa cell membrane at 2xIC50 after 12 hrs by SEM analysis; assay type: cell-based
[39] = test system: BE(2)-C; test: Induction of apoptosis in human BE(2)-C cells at 2xIC50 after 24 hrs by Annexin-V alexa fluor 488/PI staining based fluorescence microscopic analysis; assay type: functional, cell-based

| Structure (SMILES) | Activity [1] | Activity [2] | Activity [3] | Activity [4] | Activity [5] | Activity [6] | Activity [7] | Ratio IC50 [8] | Activity [9] | MIC [10] | Activity [11] | inhibition [12] | Activity [13] | Activity [14] | IC50 [15] | IC50 [16] | Activity [17] | hemolysis at 1 h, 500 µM [18] | Activity [19] | MIC [20] | other results |
| --- | --- | --- | --- | --- | --- | --- | --- | --- | --- | --- | --- | --- | --- | --- | --- | --- | --- | --- | --- | --- | --- |
| CC(=O)N[C@@H](Cc1ccc(O)cc1)C(=O)NCC(=O)N[C@@H](CCCNC(=N)N)C(=O)N[C@@H](CCCCN)C(=O)N[C@@H](CCCCN)C(=O)N[C@@H](CCCNC(=N)N)C(=O)N[C@@H](CCCNC(=N)N)C(=O)N[C@@H](CCC(N)=O)C(=O)N[C@@H](CCCNC(=N)N)C(=O)N[C@@H](CCCNC(=N)N)C(=O)N[C@@H](CCCNC(=N)N)C(=O)NCC(=O)NCC(=O)NCC(=O)N[C@@H](CC(C)C)C(=O)N[C@@H](CC(C)C)C(=O)N[C@H](C=O)CC(C)C (Ac-YGRKKRRQRRRGGGLLL-aldehyde) | 64.9% | Active | Active | Active | Active | Active | Tde | 5 | Active | 0.25 µM | Active | Active | Active | Active | 2.5 nM | 10300 nM | inactive | 1% | Dose-dependent effect | 31.2 µM (≈ 65.5 µg/mL) | inhibition [21]: Active; IC50 [22]: 4190 nM; Activity [23]: Dose-dependent effect; Activity [24]: Active; Activity [25]: inactive; Ratio IC50 [26]: 6; Ratio [27]: 5; Activity [28]: Active; MIC [29]: 6.25 µM; fractional inhibitory concentration index (FICI) [30]: 0.34; inhibition [31]: Active; Activity [32]: 72.9%; Activity [33]: Tde; Activity [34]: Active; fractional inhibitory concentration index (FICI) [35]: 0.79; Activity [36]: inactive; Activity [37]: Active; Activity [38]: Active; Activity [39]: Active |
| CC(=O)N[C@@H](Cc1ccc(O)cc1)C(=O)NCC(=O)N[C@@H](CCCNC(=N)N)C(=O)N[C@@H](CCCCN)C(=O)N[C@@H](CCCCN)C(=O)N[C@@H](CCCNC(=N)N)C(=O)N[C@@H](CCCNC(=N)N)C(=O)N[C@@H](CCC(N)=O)C(=O)N[C@@H](CCCNC(=N)N)C(=O)N[C@@H](CCCNC(=N)N)C(=O)N[C@@H](CCCNC(=N)N)C(=O)NCC(=O)NCC(=O)NCC(=O)N[C@@H](Cc1ccc(O)cc1)C(=O)N[C@@H](CC(C)C)C(=O)N[C@@H](Cc1ccccc1)C(=O)N[C@H](C=O)CC(C)C (Ac-YGRKKRRQRRRGGGYLFL-aldehyde) | 65.4% | Active | Active | Active | Active | Active | Tde | 4 | Active | 0.25 µM | Active | Active | Active | Active | 4.28 to 4.3 nM | 4700 nM | inactive | 12% | Dose-dependent effect | 15.6 µM (≈ 35.8 µg/mL) | inhibition [21]: Active; IC50 [22]: 1580 nM; Activity [23]: Dose-dependent effect; Activity [24]: Active; Activity [25]: inactive; Ratio IC50 [26]: 4; Ratio [27]: 5; Activity [28]: Active; MIC [29]: 3.12 µM; fractional inhibitory concentration index (FICI) [30]: 0.33; inhibition [31]: Active; Activity [32]: 80.5%; Activity [33]: Tde; Activity [34]: Active; fractional inhibitory concentration index (FICI) [35]: 0.49; Activity [36]: inactive; Activity [37]: Active; Activity [38]: Active; Activity [39]: Active |
